Read-outs that look alike come from different tables or passages of the source.
How the values were obtained:
Assay type in all cases: in vivo
[1] = test system: Myzus persicae (Green Peach Aphid); experiment: Myzus persicae (Green Peach Aphid): feeding/contact activity, sunflower leaf discs; conditions: foliar, 144 h
Description: Example B6: Myzus persicae (Green Peach Aphid): Feeding/Contact Activity
Sunflower leaf discs were placed onto agar in a 24-well microtiter plate and sprayed with aqueous test solutions prepared from 10′000 ppm DMSO stock solutions. After drying, the leaf discs were infested with an aphid population of mixed ages. The samples were assessed for mortality 6 days after infestation.

[2] = test system: Frankliniella occidentalis (Western Flower Thrips); experiment: Frankliniella occidentalis (Western Flower Thrips): feeding/contact activity, sunflower leaf discs; conditions: foliar, 168 h, application rate of 200 ppm, mixed ages on sprayed sunflower leaf discs, 7 days after infestation
Description: Example B5: Frankliniella occidentalis (Western Flower Thrips): Feeding/Contact Activity
Sunflower leaf discs were placed on agar in 24-well microtiter plates and sprayed with aqueous test solutions prepared from […] stock solutions. After drying the leaf discs were infested with a Frankliniella population of mixed ages. The samples were assessed for mortality 7 days after infestation.

[3] = test system: Tetranychus urticae (Two-Spotted Spider Mite); experiment: whole plant or invertebrate; conditions: foliar, 192 h
Description: Example B11: Tetranychus urticae (Two-Spotted Spider Mite): Feeding/Contact Activity
Bean leaf discs on agar in 24-well microtiter plates were sprayed with aqueous test solutions prepared from 10′000 ppm DMSO stock solutions. After drying the leaf discs were infested with a mite population of mixed ages. The samples were assessed for mortality on mixed population (mobile stages) 8 days after infestation.

[4] = test system: Myzus persicae (Green Peach Aphid); experiment: Myzus persicae (Green Peach Aphid): intrinsic activity, sucrose solution; conditions: 120 h
Description: Example B8: Myzus persicae (Green Peach Aphid). Intrinsic Activity
Test compounds prepared from 10′000 ppm DMSO stock solutions were applied by pipette into 24-well microtiter plates and mixed with sucrose solution. The plates were closed with a stretched Parafilm. A plastic stencil with 24 holes was placed onto the plate and infested pea seedlings were placed directly on the Parafilm. The infested plate was closed with a gel blotting paper and another plastic stencil and then turned upside down. The samples were assessed for mortality 5 days after infestation.

[5] = test system: Myzus persicae (Green Peach Aphid); experiment: Myzus persicae (Green Peach Aphid): systemic activity, pea seedlings; conditions: 144 h
Description: Example B7: Myzus persicae (Green Peach Aphid). Systemic Activity
Roots of pea seedlings infested with an aphid population of mixed ages were placed directly into aqueous test solutions prepared from 10′000 DMSO stock solutions. The samples were assessed for mortality 6 days after placing seedlings into test solutions.

[6] = test system: Euschistus heros (Neotropical Brown Stink Bug); experiment: Euschistus heros (Neotropical Brown Stink Bug), soybean leaves; conditions: 120 h, read-out: effect in at least one of the two categories (mortality or growth inhibition); for percent effect (mortality or growth inhibition) at 200 ppm: application rate of 200 ppm, N2 nymphs on sprayed soybean leaves, 5 days after infestation
Description: Example B4: Euschistus heros (Neotropical Brown Stink Bug)
Soybean leaves on agar in 24-well microtiter plates were sprayed with aqueous test solutions prepared from 10′000 ppm DMSO stock solutions. After drying the leaves were infested with N2 nymphs. The samples were assessed for mortality and growth inhibition in comparison to untreated samples 5 days after infestation.

[7] = test system: Bemisia tabaci (Cotton White Fly); experiment: Bemisia tabaci (Cotton White Fly): feeding/contact activity, cotton leaf discs; conditions: foliar, 144 h
Description: Example B1: Bemisia tabaci (Cotton White Fly): Feeding/Contact Activity
Cotton leaf discs were placed on agar in 24-well microtiter plates and sprayed with aqueous test solutions prepared from 10′000 ppm DMSO stock solutions. After drying the leaf discs were infested with adult white flies. The samples were checked for mortality 6 days after incubation.

[8] = application rate of 200 ppm, mixed ages on sprayed sunflower leaf discs, 6 days after infestation, read-out: mortality
[9] = application rate of 200 ppm, mixed population (mobile stages) on sprayed bean leaf discs, 8 days after infestation, read-out: mortality
[10] = test rate of 12 ppm, intrinsic, mixed with sucrose solution under Parafilm, 5 days after infestation, read-out: mortality
[11] = test rate of 24 ppm, systemic, roots of infested pea seedlings in test solution, 6 days, read-out: mortality
[12] = application rate of 200 ppm, adult white flies on sprayed cotton leaf discs, 6 days after incubation, read-out: mortality

C[C@@H](COc1cnc(Cl)c(C(=O)NC2(C#N)CCC2)c1)NS(=O)(=O)C(F)(F)F [Compound P-48, 2-chloro-N-(1-cyanocyclobutyl)-5-[(2S)-2-(trifluoromethylsulfonylamino)propoxy]pyridine-3-carboxamide]
≥ 80%: mortality at 200 ppm [1, 8] | mortality at 200 ppm [2] | mortality at 200 ppm [3, 9] | mortality at 12 ppm [4, 10] | mortality at 24 ppm [5, 11]

Cc1cnc(OC[C@H](C)NS(=O)(=O)C(F)(F)F)cc1C(=O)NC12CC(C1)C2 [Compound P-66, N-(1-bicyclo[1.1.1]pentanyl)-5-methyl-2-[(2S)-2-(trifluoromethylsulfonylamino)propoxy]pyridine-4-carboxamide]
≥ 80%: percent effect (mortality or growth inhibition) at 200 ppm [6]

CCNC(=O)c1cc(OC[C@H](C)NS(=O)(=O)C(F)(F)F)cnc1Cl [Compound P-50, 2-chloro-N-ethyl-5-[(2S)-2-(trifluoromethylsulfonylamino)propoxy]pyridine-3-carboxamide]
≥ 80%: mortality at 200 ppm [1, 8] | percent effect (mortality or growth inhibition) at 200 ppm [6] | mortality at 12 ppm [4, 10]

C[C@@H](COc1cnc(Cl)c(C(=O)NC2(C#N)CC2)c1)N(CC#N)S(=O)(=O)C(F)(F)F [Compound P-8, 2-chloro-N-(1-cyanocyclopropyl)-5-[(2S)-2-[cyanomethyl(trifluoromethylsulfonyl)amino]propoxy]pyridine-3-carboxamide]
≥ 80%: mortality at 200 ppm [1, 8] | mortality at 200 ppm [3, 9] | percent effect (mortality or growth inhibition) at 200 ppm [6] | mortality at 12 ppm [4, 10] | mortality at 24 ppm [5, 11] | mortality at 200 ppm [7, 12]

COCN([C@@H](C)COc1cnc(Cl)c(C(=O)N(C(C)=O)C2CC2)c1)S(=O)(=O)C(F)(F)F [Compound P-12, N-acetyl-2-chloro-N-cyclopropyl-5-[(2S)-2-[methoxymethyl(trifluoromethylsulfonyl)amino]propoxy]pyridine-3-carboxamide]
≥ 80%: mortality at 200 ppm [1, 8] | mortality at 200 ppm [3, 9] | percent effect (mortality or growth inhibition) at 200 ppm [6] | mortality at 12 ppm [4, 10] | mortality at 200 ppm [7, 12]

C[C@@H](COc1cnc(Cl)c(C(=O)NC2CC2)c1)N(CC#N)S(=O)(=O)C(F)(F)F [Compound P-15, 2-chloro-5-[(2S)-2-[cyanomethyl (trifluoromethylsulfonyl)amino]propoxy]-N-cyclopropyl-pyridine-3-carboxamide]
≥ 80%: mortality at 200 ppm [1, 8] | mortality at 200 ppm [3, 9] | percent effect (mortality or growth inhibition) at 200 ppm [6] | mortality at 12 ppm [4, 10] | mortality at 24 ppm [5, 11] | mortality at 200 ppm [7, 12]

CC(C)C(=O)OCN([C@@H](C)COc1cnc(Cl)c(C(=O)NC2(C#N)CC2)c1)S(=O)(=O)C(F)(F)F [Compound P-9, [[(1S)-2-[[6-chloro-5-[(1-cyanocyclopropyl)carbamoyl]-3-pyridyl]oxy]-1-methyl-ethyl]-(trifluoromethylsulfonyl)amino]methyl 2-methylpropanoate]
≥ 80%: mortality at 200 ppm [1, 8] | mortality at 200 ppm [2] | mortality at 12 ppm [4, 10] | mortality at 200 ppm [7, 12]

Cc1ncc(OC[C@H](C)NS(=O)(=O)C(F)(F)F)cc1C(=O)NC1CC1 [Compound P-62, N-cyclopropyl-2-methyl-5-[(2S)-2-(trifluoromethylsulfonylamino)propoxy]pyridine-3-carboxamide]
≥ 80%: mortality at 200 ppm [2]

C[C@@H](COc1cnc(Cl)c(C(=O)NCC(F)(F)F)c1)NS(=O)(=O)C(F)(F)F [Compound P-3, 2-chloro-N-(2,2,2-trifluoroethyl)-5-[(2S)-2-(trifluoromethylsulfonylamino)propoxy]pyridine-3-carboxamide]
≥ 80%: mortality at 200 ppm [1, 8] | mortality at 200 ppm [2] | mortality at 200 ppm [3, 9] | percent effect (mortality or growth inhibition) at 200 ppm [6] | mortality at 12 ppm [4, 10] | mortality at 200 ppm [7, 12]

Cc1ncc(OC[C@H](C)NS(=O)(=O)C(F)(F)F)cc1C(=O)NC1CCN(c2ccc(F)cc2)C1=O (stereo partly drawn) [Compound P-35, N-[1-(4-fluorophenyl)-2-oxo-pyrrolidin-3-yl]-2-methyl-5-[(2S)-2-(trifluoromethylsulfonylamino)propoxy]pyridine-3-carboxamide]
≥ 80%: mortality at 200 ppm [2]

C[C@@H](COc1cnc(Cl)c(C(=O)NC2CC2)c1)N(C)S(=O)(=O)C(F)(F)F [Compound P-16, 2-chloro-N-cyclopropyl-5-[(2S)-2-[methyl(trifluoromethylsulfonyl)amino]propoxy]pyridine-3-carboxamide]
≥ 80%: mortality at 200 ppm [1, 8] | mortality at 200 ppm [3, 9] | percent effect (mortality or growth inhibition) at 200 ppm [6] | mortality at 12 ppm [4, 10] | mortality at 24 ppm [5, 11]

C[C@@H](COc1cnc(Cl)c(C(=O)N(C)C2CC2)c1)NS(=O)(=O)C(F)(F)F [Compound P-58, 2-chloro-N-cyclopropyl-N-methyl-5-[(2S)-2-(trifluoromethylsulfonylamino)propoxy]pyridine-3-carboxamide]
≥ 80%: mortality at 200 ppm [1, 8] | percent effect (mortality or growth inhibition) at 200 ppm [6] | mortality at 12 ppm [4, 10] | mortality at 24 ppm [5, 11] | mortality at 200 ppm [7, 12]

Cc1ncc(OC[C@H](C)NS(=O)(=O)C(F)(F)F)cc1C(=O)NC1CON(CC(F)(F)F)C1=O (stereo partly drawn) [Compound P-30, 2-methyl-N-[3-oxo-2-(2,2,2-trifluoroethyl)isoxazolidin-4-yl]-5-[(2S)-2-(trifluoromethylsulfonylamino)propoxy]pyridine-3-carboxamide]
≥ 80%: mortality at 200 ppm [2]

C[C@@H](COc1cnc(Cl)c(C(=O)N(C)C2(C#N)CC2)c1)NS(=O)(=O)C(F)(F)F [Compound P-47, 2-chloro-N-(1-cyanocyclopropyl)-N-methyl-5-[(2S)-2-(trifluoromethylsulfonylamino)propoxy]pyridine-3-carboxamide]
≥ 80%: mortality at 200 ppm [1, 8] | mortality at 200 ppm [2] | mortality at 12 ppm [4, 10] | mortality at 200 ppm [7, 12]

C[C@@H](COc1cnc(Cl)c(C(=O)NC2CC2)c1)N(C(=O)OC(C)(C)C)S(=O)(=O)C(F)(F)F [Compound P-42, tert-butyl N-[(1S)-2-[[6-chloro-5-(cyclopropylcarbamoyl)-3-pyridyl]oxy]-1-methyl-ethyl]-N-(trifluoromethylsulfonyl)carbamate]
≥ 80%: mortality at 200 ppm [1, 8] | mortality at 200 ppm [2] | mortality at 200 ppm [3, 9] | percent effect (mortality or growth inhibition) at 200 ppm [6] | mortality at 12 ppm [4, 10]

COCN([C@@H](C)COc1cnc(C)c(C(=O)NC2CC2)c1)S(=O)(=O)C(F)(F)F [Compound P-61, N-cyclopropyl-5-[(2S)-2-[methoxymethyl (trifluoromethylsulfonyl)amino]propoxy]-2-methyl-pyridine-3-carboxamide]
≥ 80%: percent effect (mortality or growth inhibition) at 200 ppm [6]

COC(=O)N([C@@H](C)COc1cnc(Cl)c(C(=O)NC2CC2)c1)S(=O)(=O)C(F)(F)F [Compound P-14, methyl N-[(1S)-2-[[6-chloro-5-(cyclopropylcarbamoyl)-3-pyridyl]oxy]-1-methyl-ethyl]-N-(trifluoromethylsulfonyl)carbamate]
≥ 80%: mortality at 200 ppm [1] | mortality at 200 ppm [3] | percent control (mortality or growth inhibition) at 200 ppm [6] | mortality at 12 ppm [4] | mortality at 24 ppm [5] | mortality at 200 ppm [7]

Cc1cnc(OC[C@H](C)NS(=O)(=O)C(F)(F)F)cc1C(=O)NCCOc1ccccc1F [Compound P-71, N-[2-(2-fluorophenoxy)ethyl]-5-methyl-2-[(2S)-2-(trifluoromethylsulfonylamino)propoxy]pyridine-4-carboxamide]
≥ 80%: percent effect (mortality or growth inhibition) at 200 ppm [6]

Source: patent publication US20260015325A1, “ALKOXY HETEROARYL- CARBOXAMIDE OR THIOAMIDE COMPOUNDS” (SYNGENTA CROP PROTECTION AG, priority 2022, published 2026)
